“Also recorded” adds a separate entry of the source. Read-outs that look alike come from different tables or passages of the source. Where a SMILES comes first, the peptide text is derived from it.
How the values were obtained:
[1] = Organoleptic check of ORS solutions with a single sweetener; type: in vivo; settings: 200 mg Na-cyclamate or quantity calculated to equal sweetening power per dose
Experimental: Permitted sweeteners were used for a taste test on ORS solutions. Different concentrations of 10 to 200 mg of the sweetener Na-cyclamate were weighed into the solids mixture. Na-cyclamate is a sodium salt like NaCl. In comparison to other sweeteners, it has a low sweetening power. It was to be found out whether the salty taste of the ORS solution can be masked as a function of concentration by Na-cyclamate. The powder mixtures were weighed out according to the composition of the WHO and dissolved in water according to the instruction.
After organoleptic checking, no salty taste was perceived for the ORS solution with a concentration of 200 mg Na-cyclamate.
The sweeteners were calculated to the standard concentration of the Na-cyclamate. The different sweetening power values of the sweeteners were used as the reference variable.
The calculated quantities of sweeteners were added to the ORS powder mixtures and dissolved in water. The following organoleptic test took place.

[2] = cited from earlier work; for ADI value/kg KG: acceptable daily intake per kg body weight
[3] = cited from earlier work
[4] = Acceptable daily intake (ADI) value and highest daily doses calculated from it; settings: child weighing 10 kg; for Highest dose/sachet: four sachets a day
Source text: An E number is provided for each sweetener and an ADI value is defined. The “acceptable daily intake” (ADI) value gives the quantity in milligrams per kilogram of body weight (KG) of the substance, which can be taken daily for life without incurring damage.
ADI values (acceptable daily intake) were established for the sweeteners. Using the ADI values, maximum concentrations can be calculated, which may be applied daily by a substance without incurring damage for life. The sweetener addition to the ORS solutions is limited by the ADI values. According to the specialist information for preparation C, the therapeutic maximum dose is four sachets a day for babies and small children. […] The calculation relates to the bodyweight of a child weighing 10 kg.

[5] = in vivo; cited from earlier work
[6] = Organoleptic test of ORS solutions with sugars and sugar alcohols; type: in vivo
Source text: Further sweetening agents were included in a taste testing. An addition of sugars and sugar alcohols has a substantially stronger effect on the total osmolarity of an ORS solution than the addition of sweeteners. […] In addition to the total osmolarity of the effective constituents of the ORS solutions, the values are outside the recommended limits of the WHO recommendations. The quantities to be added are not to be recommended either in relation to the promotion of caries and a laxative effective. […] A taste test was nevertheless carried out with the sugars and sugar alcohols. Complete dissolution took place in water and an organoleptic test took place with the calculated quantities. […] The concentrations of substances were reduced to such an extent that the maximum limit of the osmolarity of 311 mosmol/l was adhered to. […] The addition of sweeteners is to be preferred in each case with regard to side-effects, osmolarity and a complete masking of the salty taste.

[7] = neotam as aspartame derivative; cited from earlier work
bladder carcinomas = settings: cited from earlier work
[8] = ranking of the three sweeteners
Experimental: In order to use as few sweeteners as possible, two sweeteners from Table 3 are combined with one another in each case. The result is six combinations. […] As a result, the concentration with 40 mg for aspartame was only selected to be half as high as the maximally permissible daily highest limit. In order to ensure a comparability with the other sweeteners, the concentration of aspartame was also retained for the remaining combinations.
Proceeding from the tested concentration ratios of the combinations it was investigated whether the same masking of taste can be achieved by a reduction in dose of the sweeteners.

[9] = relative to saccharose = 1, sweeteners permitted in the European Union
[10] = sugars and sugar alcohols table
[11] = calculated quantities (equal sweetness to 200 mg Na-cyclamate)
[12] = concentrations reduced so that maximum osmolarity of 311 mosmol/l is adhered to

## CC1=CC(=O)NS(=O)(=O)O1 [Acesulfame potassium]
[1]; listed as acesulfame-K
  masking of the salty taste of the ORS solution: salty taste was perceived to a lesser extent; also recorded: masking was achieved
[2]
  ADI value/kg KG: 15 mg mg/kg KG
[3]; [9]
  Sweetening power: 200
[4]
  Highest daily dose/10 kg BW: 150 mg
  Highest dose/sachet: 37.5 mg

## CC1=CC(=O)NS(=O)(=O)O1 [Acesulfame]
[5]
  fate in the human organism (splitting, metabolism, elimination): eliminated unchanged via the kidneys

## CC1=CC(=O)NS(=O)(=O)O1.COC(=O)[C@H](Cc1ccccc1)NC(=O)[C@@H](N)CC(=O)O [Aspartame-acesulfame salt] (H-Asp-Phe-OMe)
[1]
  masking of the salty taste of the ORS solution: salty taste was perceived to a lesser extent
[5]
  fate in the human organism (splitting, metabolism, elimination): split into its original components aspartame and acesulfame
[3]; [9]
  Sweetening power: 350

## COC(=O)[C@H](Cc1ccccc1)NC(=O)[C@@H](N)CC(=O)O [Aspartame] (H-Asp-Phe-OMe)
[1]
  masking of the salty taste of the ORS solution: salty taste was perceived to a lesser extent; also recorded: masking was achieved
[2]
  ADI value/kg KG: 40 mg mg/kg KG
[5]
  fate in the human organism (splitting, metabolism, elimination): metabolised in the body
[3]; [9]
  Sweetening power: 200
[4]
  Highest daily dose/10 kg BW: 400 mg
  Highest dose/sachet: 100.0 mg

## OC[C@H]1O[C@@H](O[C@H]2[C@H](O)[C@@H](O)C(O)O[C@@H]2CO)[C@H](O)[C@@H](O)[C@H]1O (stereo partly drawn) [Lactose]
[3]; [10]
  Sweetening power: 0.2

## OC[C@@H](O)[C@@H](O[C@H]1O[C@H](CO)[C@@H](O)[C@H](O)[C@H]1O)[C@H](O)[C@@H](O)CO [Maltitol]
[6]; [11]
  masking of the salty taste of the ORS solutions: masking of the salty taste of the ORS solutions could substantially be achieved
[6]; [12]
  masking of the salty taste of the ORS solutions: substantially not salty, but very sour and not sweet
[3]; [10]
  Sweetening power: 0.9

## OC[C@@H](O)[C@@H](O)[C@H](O)[C@H](O)CO [Mannitol]
[3]; [10]
  Sweetening power: 0.4

## COc1ccc(CCC(=O)c2c(O)cc(O[C@@H]3O[C@H](CO)[C@@H](O)[C@H](O)[C@H]3O[C@@H]3O[C@@H](C)[C@H](O)[C@@H](O)[C@H]3O)cc2O)cc1O [Neohesperidin dihydrochalcone]
[2]
  ADI value/kg KG: 5 mg mg/kg KG
[3]; [9]
  Sweetening power: 1000

## COC(=O)[C@H](Cc1ccccc1)NC(=O)[C@H](CC(=O)O)NCCC(C)(C)C [Neotam]
[7]
  hydrolytic stability: better hydrolytic stability
[3]; relative to saccharose
  Sweetening power: about 10,000

## O=C1NS(=O)(=O)c2ccccc21.[Na] [Saccharin sodium]
[2]
  ADI value/kg KG: 5 mg mg/kg KG
[3]; [9]
  Sweetening power: 500
Bladder carcinomas
  promotion of the growth of bladder carcinomas: suspected of promoting the growth of bladder carcinomas
[4]
  Highest daily dose/10 kg BW: 50 mg
  Highest dose/sachet: 12.5 mg

## OC[C@H]1O[C@@](CO)(O[C@H]2O[C@H](CO)[C@@H](O)[C@H](O)[C@H]2O)[C@@H](O)[C@@H]1O [Saccharose]
[6]; [11]
  masking of the salty taste of the ORS solutions: masking of the salty taste of the ORS solutions could substantially be achieved
[6]; [12]
  masking of the salty taste of the ORS solutions: No masking of taste could be achieved
[3]; relative to saccharose
  Sweetening power: one
[3]; [10]
  Sweetening power: 1

## O=S(=O)([O-])NC1CCCCC1.[Na+] [Sodium cyclamate]
[1]
  masking of the salty taste of the ORS solution: complete masking of taste; also recorded: masking was achieved
[8]
  ability to mask a salty taste: highest
[2]
  ADI value/kg KG: 11 mg mg/kg KG
  ADI value: 11 mg per kg of bodyweight
[3]; [9]
  Sweetening power: 30
[3]; [10]
  Sweetening power: 30
[4]
  Highest daily dose/10 kg BW: 110 mg
  Highest dose/sachet: 27.5 mg

## OC[C@@H](O)[C@@H](O)[C@H](O)[C@@H](O)CO [Sorbitol]
[3]; [10]
  Sweetening power: 0.6

## OC[C@H]1O[C@H](O[C@]2(CCl)O[C@H](CCl)[C@@H](O)[C@@H]2O)[C@H](O)[C@@H](O)[C@H]1Cl [Sucralose]
[2]
  ADI value/kg KG: 15 mg mg/kg KG
[3]; [9]
  Sweetening power: 600

## Isomalt
[3]; [10]
  Sweetening power: 0.45

## Thaumatin
[1]
  masking of the salty taste of the ORS solution: could also no longer be masked
[2]
  ADI value/kg KG: 5 mg mg/kg KG
[3]; [9]
  Sweetening power: 3000

Source: US20100298242A1, “MASKING THE TASTE OF COMPOSITONS CONTAINING SALT” (priority 2006, published 2010)
